Laboratory results: patent US20180170904A1, “PYRIDIN-3-YL ACETIC ACID DERIVATIVES AS INHIBITORS OF HUMAN IMMUNODEFICIENCY VIRUS REPLICATION” (priority 2015, published 2018)

system: NL-RLuc virus (recombinant NL4-3 proviral clone with Renilla Luciferase gene); experiment: Inhibition of HIV replication (NL-RLuc reporter virus in MT-2 cells); assay type: cell-based; conditions: Renilla, NL43, 120 h, read-out: Activity
Text: Inhibition of HIV replication: A recombinant NL-RLuc proviral clone was constructed in which a section of the nef gene from NL4-3 was replaced with the Renilla Luciferase gene. This virus is fully infectious and can undergo multiple cycles of replication in cell culture. In addition, the luciferous reporter provides a simple and easy method for quantitating the extent of virus growth and consequently, the antiviral activity of test compounds. The plasmid pNLRLuc contains the proviral NL-Rluc DNA cloned into pUC18 at the PvuII site. The NL-RLuc virus was prepared by transfection of 293T cells with the plasmid pNLRLuc. Transfections were performed using the LipofectAMINE PLUS kit from Invitrogen (Carlsbad, Calif.) according to the manufacturer and the virus generated was titered in MT-2 cells. For susceptibility analyses, the titrated virus was used to infect MT-2 cells in the presence of compound, and after 5 days of incubation, cells were processed and quantitated for virus growth by the amount of expressed luciferase. Assay media was RPMI 1640 supplemented with 10% heat inactivated fetal bovine serum (FBS), 100 units/ml penicillin G/100 units/ml streptomycin, 10 mM HEPES buffer pH 7.55 and 2 mM L-glutamine. The results from at least 2 experiments were used to calculate the EC50 values. Luciferase was quantitated using the Dual Luciferase kit from Promega (Madison, Wis.). Susceptibility of viruses to compounds was determined by incubation in the presence of serial dilutions of the compound. The 50% effective concentration (EC50) was calculated by using the exponential form of the median effect equation where (Fa)=1/[1+(ED50/drug conc.)^m] (Johnson V A, Byington R T. Infectivity Assay. In Techniques in HIV Research. ed. Aldovini A, Walker B D. 71-76. New York: Stockton Press.1990). Activity equal to A refers to a compound having an EC50≤100 nM, while B and C denote compounds having an EC50 between 100 nM and 1 uM (B) or >1 uM (C).

| Structure (SMILES) | EC50 |
| --- | --- |
| Cc1nc(C)c([C@H](OC(C)(C)C)C(=O)O)c(N2CCC(C(F)(F)F)CC2)c1-c1ccc(C(=O)NCc2ccccc2)cc1 [Example 54, (S)-2-(5-(4-(Benzylcarbamoyl)phenyl)-2,6-dimethyl-4-(4-(trifluoromethyl)piperidin-1-yl)pyridin-3-yl)-2-(tert-butoxy)acetic acid] | < 0.1 µM |
| Cc1ccc(-c2c(C)nc(C)c([C@H](OC(C)(C)C)C(=O)O)c2N2CCC(C)(C)CC2)cc1C [Example 44, (S)-2-(tert-Butoxy)-2-(5-(3,4-dimethylphenyl)-4-(4,4-dimethylpiperidin-1-yl)-2,6-dimethylpyridin-3-yl)acetic acid] | < 0.1 µM |
| Cc1nc(C)c([C@H](OC(C)(C)C)C(=O)O)c(N2CCC(C)(C)CC2)c1-c1ccc(SCCC(C)C)cc1 [Example 23, (S)-2-(tert-Butoxy)-2-(4-(4,4-dimethylpiperidin-1-yl)-5-(4-(isopentylthio)phenyl)-2,6-dimethylpyridin-3-yl)acetic acid] | < 0.1 µM |
| Cc1nc(C)c([C@H](OC(C)(C)C)C(=O)O)c(N2CCC(C)(C)CC2)c1-c1cncnc1 [Example 28, (S)-2-(tert-Butoxy)-2-(4-(4,4-dimethylpiperidin-1-yl)-2,6-dimethyl-5-(pyrimidin-5-yl)pyridin-3-yl)acetic acid] | 0.1 to 1 µM |
| Cc1cc(-c2c(C)nc(C)c([C@H](OC(C)(C)C)C(=O)O)c2N2CCC(C)(C)CC2)ccc1F [Example 39, (S)-2-(tert-Butoxy)-2-(4-(4,4-dimethylpiperidin-1-yl)-5-(4-fluoro-3-methylphenyl)-2,6-dimethylpyridin-3-yl)acetic acid] | < 0.1 µM |
| Cc1nc(C)c([C@H](OC(C)(C)C)C(=O)O)c(N2CCC(C)(C)CC2)c1-c1ccc(-c2ccccc2)c(F)c1 [Example 14, (S)-2-(tert-Butoxy)-2-(4-(4,4-dimethylpiperidin-1-yl)-5-(2-fluoro-[1,1′-biphenyl]-4-yl)-2,6-dimethylpyridin-3-yl)acetic acid] | < 0.1 µM |
| Cc1nc(C)c([C@H](OC(C)(C)C)C(=O)O)c(N2CCC(C)(C)CC2)c1-c1ccc(-c2ccccc2)cc1 [Example 8, (S)-2-(5-([1,1′-Biphenyl]-4-yl)-4-(4,4-dimethylpiperidin-1-yl)-2,6-dimethylpyridin-3-yl)-2-(tert-butoxy)acetic acid] | < 0.1 µM |
| Cc1nc(C)c([C@H](OC(C)(C)C)C(=O)O)c(N2CCC(C)(C)CC2)c1-c1ccc(S(=O)(=O)C(C)C)cc1 [Example 30, (S)-2-(tert-Butoxy)-2-(4-(4,4-dimethylpiperidin-1-yl)-5-(4-(isopropylsulfonyl)phenyl)-2,6-dimethylpyridin-3-yl)acetic acid] | < 0.1 µM |
| Cc1nc(C)c([C@H](OC(C)(C)C)C(=O)O)c(N2CCC(C)(C)CC2)c1-c1ccc(C(N)=O)cc1 [Example 25, (S)-2-(tert-Butoxy)-2-(5-(4-carbamoylphenyl)-4-(4,4-dimethylpiperidin-1-yl)-2,6-dimethylpyridin-3-yl)acetic acid] | 0.1 to 1 µM |
| Cc1nc(C)c([C@H](OC(C)(C)C)C(=O)O)c(N2CCC(C)(C)CC2)c1-c1ccc(Cc2ccccc2)cc1 [Example 15, (S)-2-(5-(4-Benzylphenyl)-4-(4,4-dimethylpiperidin-1-yl)-2,6-dimethylpyridin-3-yl)-2-(tert-butoxy)acetic acid] | < 0.1 µM |
| Cc1nc(C)c([C@H](OC(C)(C)C)C(=O)O)c(N2CCC(C)(C)CC2)c1-c1ccc(S(=O)(=O)NC2CC2)cc1 [Example 35, (S)-2-(tert-Butoxy)-2-(5-(4-(N-cyclopropylsulfamoyl)phenyl)-4-(4,4-dimethylpiperidin-1-yl)-2,6-dimethylpyridin-3-yl)acetic acid] | 0.1 to 1 µM |
| Cc1nc(C)c([C@H](OC(C)(C)C)C(=O)O)c(N2CCC(c3ccccc3)CC2)c1-c1ccc(C(=O)NCc2ccccc2)cc1 [Example 62, (S)-2-(5-(4-(Benzylcarbamoyl)phenyl)-2,6-dimethyl-4-(4-phenylpiperidin-1-yl)pyridin-3-yl)-2-(tert-butoxy)acetic acid] | > 1 µM |
| Cc1nc(C)c([C@H](OC(C)(C)C)C(=O)O)c(N2CCC(C)(C)CC2)c1-c1ccc(CCCc2ccc(F)cc2)cc1 [Example 52, (S)-2-(tert-Butoxy)-2-(4-(4,4-dimethylpiperidin-1-yl)-5-(4-(3-(4-fluorophenyl)propyl)phenyl)-2,6-dimethylpyridin-3-yl)acetic acid] | < 0.1 µM |
| Cc1nc(C)c([C@H](OC(C)(C)C)C(=O)O)c(N2CCC(C)(F)CC2)c1-c1ccc(C(=O)NCc2ccccc2)cc1 [Example 65, (S)-2-(5-(4-(Benzylcarbamoyl)phenyl)-4-(4-fluoro-4-methylpiperidin-1-yl)-2,6-dimethylpyridin-3-yl)-2-(tert-butoxy)acetic acid] | < 0.1 µM |
| Cc1nc(C)c([C@H](OC(C)(C)C)C(=O)O)c(N2CCC(C)(C)CC2)c1-c1ccc(C(=O)NCc2c(F)cc(F)cc2F)cc1 [Example 69, (S)-2-(tert-Butoxy)-2-(4-(4,4-dimethylpiperidin-1-yl)-2,6-dimethyl-5-(4-((2,4,6-trifluorobenzyl)carbamoyl)phenyl)pyridin-3-yl)acetic acid] | < 0.1 µM |
| CSc1ncc(-c2c(C)nc(C)c([C@H](OC(C)(C)C)C(=O)O)c2N2CCC(C)(C)CC2)cn1 [Example 42, (S)-2-(tert-Butoxy)-2-(4-(4,4-dimethylpiperidin-1-yl)-2,6-dimethyl-5-(2-(methylthio)pyrimidin-5-yl)pyridin-3-yl)acetic acid] | < 0.1 µM |
| Cc1nc(C)c([C@H](OC(C)(C)C)C(=O)O)c(N2CCC(C)(C)CC2)c1-c1cccc(-c2nnn[nH]2)c1 [Example 47, (S)-2-(5-(3-(1H-Tetrazol-5-yl)phenyl)-4-(4,4-dimethylpiperidin-1-yl)-2,6-dimethylpyridin-3-yl)-2-(tert-butoxy)acetic acid] | > 1 µM |
| Cc1nc(C)c([C@H](OC(C)(C)C)C(=O)O)c(N2CCC(C)(C)CC2)c1-c1ccccc1 [Example 7, (S)-2-(tert-Butoxy)-2-(4-(4,4-dimethylpiperidin-1-yl)-2,6-dimethyl-5-phenylpyridin-3-yl)acetic acid] | < 0.1 µM |
| CCCCCc1ccc(-c2c(C)nc(C)c([C@H](OC(C)(C)C)C(=O)O)c2N2CCC(C)(C)CC2)cc1 [Example 22, (S)-2-(tert-Butoxy)-2-(4-(4,4-dimethylpiperidin-1-yl)-2,6-dimethyl-5-(4-pentylphenyl)pyridin-3-yl)acetic acid] | < 0.1 µM |
| Cc1nc(C)c([C@H](OC(C)(C)C)C(=O)O)c(N2CCC(C)(C)CC2)c1-c1ccc(CO)cc1 [Example 82, (S)-2-(tert-Butoxy)-2-(4-(4,4-dimethylpiperidin-1-yl)-5-(4-(hydroxymethyl)phenyl)-2,6-dimethylpyridin-3-yl)acetic acid] | < 0.1 µM |
| Cc1nc(C)c([C@H](OC(C)(C)C)C(=O)O)c(N2CCC(C)(C)CC2)c1-c1ccc(CC(N)=O)cc1 [Example 26, (S)-2-(5-(4-(2-Amino-2-oxoethyl)phenyl)-4-(4,4-dimethylpiperidin-1-yl)-2,6-dimethylpyridin-3-yl)-2-(tert-butoxy)acetic acid] | 0.1 to 1 µM |
| Cc1nc(C)c([C@H](OC(C)(C)C)C(=O)O)c(N2CCC(C)(C)CC2)c1-c1ccc(SCCc2ccc(F)cc2)cc1 [Example 78, (S)-2-(tert-Butoxy)-2-(4-(4,4-dimethylpiperidin-1-yl)-5-(4-((4-fluorophenethyl)thio)phenyl)-2,6-dimethylpyridin-3-yl)acetic acid] | < 0.1 µM |
| Cc1nc(C)c([C@H](OC(C)(C)C)C(=O)O)c(N2CCC(C)(C)CC2)c1-c1ccc(/C=C/C#N)cc1 [Example 49, (S,E)-2-(tert-Butoxy)-2-(5-(4-(2-cyanovinyl)phenyl)-4-(4,4-dimethylpiperidin-1-yl)-2,6-dimethylpyridin-3-yl)acetic acid] | 0.1 to 1 µM |
| Cc1nc(C)c([C@H](OC(C)(C)C)C(=O)O)c(N2CCC(C)(C)CC2)c1-c1ccc(N(CCc2ccc(F)cc2)C(O)Cc2ccc(F)cc2)cc1 (stereo partly drawn) [Example 74, (2S)-2-(tert-Butoxy)-2-(4-(4,4-dimethylpiperidin-1-yl)-5-(4-((4-fluorophenethyl)(2-(4-fluorophenyl)-1-hydroxyethyl)amino)phenyl)-2,6-dimethylpyridin-3-yl)acetic acid] | < 0.1 µM |
| Cc1nc(C)c([C@H](OC(C)(C)C)C(=O)O)c(N2CCC(C)(C)CC2)c1-c1ccc(C(=O)NCCc2ccc(F)cc2)cc1 [Example 2, (S)-2-(tert-Butoxy)-2-(4-(4,4-dimethylpiperidin-1-yl)-5-(4-((4-fluorophenethyl)carbamoyl)phenyl)-2,6-dimethylpyridin-3-yl)acetic acid] | < 0.1 µM |

same assay, conditions: Renilla, NL43, 120 h, read-out: EC50 μM

| Structure (SMILES) | EC50 |
| --- | --- |
| Cc1nc(C)c([C@H](OC(C)(C)C)C(=O)O)c(N2CCC(C)(C)CC2)c1-c1ccc(-c2ccccc2)cc1 [Example 8, (S)-2-(5-([1,1′-Biphenyl]-4-yl)-4-(4,4-dimethylpiperidin-1-yl)-2,6-dimethylpyridin-3-yl)-2-(tert-butoxy)acetic acid] | 0.031 µM |
| Cc1nc(C)c([C@H](OC(C)(C)C)C(=O)O)c(N2CCC(C)(C)CC2)c1-c1ccc(C(=O)NCc2c(F)cc(F)cc2F)cc1 [Example 69, (S)-2-(tert-Butoxy)-2-(4-(4,4-dimethylpiperidin-1-yl)-2,6-dimethyl-5-(4-((2,4,6-trifluorobenzyl)carbamoyl)phenyl)pyridin-3-yl)acetic acid] | 0.004 µM |
| Cc1nc(C)c([C@H](OC(C)(C)C)C(=O)O)c(N2CCC(C)(C)CC2)c1-c1ccc(CC(N)=O)cc1 [Example 26, (S)-2-(5-(4-(2-Amino-2-oxoethyl)phenyl)-4-(4,4-dimethylpiperidin-1-yl)-2,6-dimethylpyridin-3-yl)-2-(tert-butoxy)acetic acid] | 0.373 µM |
| Cc1nc(C)c([C@H](OC(C)(C)C)C(=O)O)c(N2CCC(C)(C)CC2)c1-c1ccc(SCCc2ccc(F)cc2)cc1 [Example 78, (S)-2-(tert-Butoxy)-2-(4-(4,4-dimethylpiperidin-1-yl)-5-(4-((4-fluorophenethyl)thio)phenyl)-2,6-dimethylpyridin-3-yl)acetic acid] | 0.016 µM |
